From ChEMBL document CHEMBL1201862, “PubChem BioAssay data set” (2004)
Active and inactive are the calls of the source.

Tests used:
[1] = target: T1, High affinity choline transporter 1 (Homo sapiens, UniProt Q9GZV3); assay: CHT inhibitors, dose response, cell-based, 5-point CRC, membrane potential dye (AID 504840); assay type: functional
T1 sequence (Q9GZV3 whole entry): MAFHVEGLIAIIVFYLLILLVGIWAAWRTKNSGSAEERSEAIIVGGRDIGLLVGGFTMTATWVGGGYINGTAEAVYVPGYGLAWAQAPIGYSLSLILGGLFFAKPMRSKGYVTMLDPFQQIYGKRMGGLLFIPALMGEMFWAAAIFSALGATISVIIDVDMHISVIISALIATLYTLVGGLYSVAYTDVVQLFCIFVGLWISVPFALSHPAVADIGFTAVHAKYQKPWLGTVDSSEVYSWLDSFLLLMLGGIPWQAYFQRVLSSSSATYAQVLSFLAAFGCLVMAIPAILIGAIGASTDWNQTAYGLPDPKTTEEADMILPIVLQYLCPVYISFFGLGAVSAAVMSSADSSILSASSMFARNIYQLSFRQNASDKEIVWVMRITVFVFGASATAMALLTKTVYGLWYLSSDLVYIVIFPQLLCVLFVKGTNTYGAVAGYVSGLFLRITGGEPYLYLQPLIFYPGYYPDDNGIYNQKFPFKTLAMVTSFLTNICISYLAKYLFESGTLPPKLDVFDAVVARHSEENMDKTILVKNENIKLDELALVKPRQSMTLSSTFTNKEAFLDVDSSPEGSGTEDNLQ

[2] = Luminescence Cell-Based Dose Retest to Confirm Inhibitors of Cancer Stem Cells. [Related pubchem assays (depositor defined):AID2717, AID2721]; assay type: functional; conditions: Homo sapiens
[3] = target: Luciferin 4-monooxygenase (Photinus pyralis, UniProt P08659); assay: firefly luciferase enzyme inhibitors, dose response, biochemical, luminescence (AID 1891)
Luciferin 4-monooxygenase, sequence (P08659 whole entry): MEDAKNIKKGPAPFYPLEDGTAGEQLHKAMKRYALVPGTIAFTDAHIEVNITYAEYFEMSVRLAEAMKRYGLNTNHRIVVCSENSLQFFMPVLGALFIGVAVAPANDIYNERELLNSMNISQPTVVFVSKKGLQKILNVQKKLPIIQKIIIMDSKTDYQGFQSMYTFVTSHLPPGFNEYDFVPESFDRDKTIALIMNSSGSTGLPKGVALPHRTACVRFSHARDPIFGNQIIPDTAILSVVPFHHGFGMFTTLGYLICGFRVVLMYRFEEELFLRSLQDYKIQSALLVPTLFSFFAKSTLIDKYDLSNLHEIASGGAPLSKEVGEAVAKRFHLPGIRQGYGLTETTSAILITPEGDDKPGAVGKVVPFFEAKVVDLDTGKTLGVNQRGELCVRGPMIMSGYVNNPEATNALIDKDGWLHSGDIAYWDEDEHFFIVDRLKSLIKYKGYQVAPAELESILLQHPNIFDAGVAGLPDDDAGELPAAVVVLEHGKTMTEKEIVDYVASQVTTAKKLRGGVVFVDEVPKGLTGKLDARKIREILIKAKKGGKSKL

[4] = Luminescence Cell-Based Dose Confirmation HTS to Identify Inhibitors of Platelet Dense Granule Release. [Related pubchem assays: 1663 (Primary HTS), 1678 (Summary of Project)]; assay type: functional
[5] = test system: Streptococcus sp. 'group A'; assay: growth inhibition of control SK(-) GAS strain, dose response, counter-screen for streptokinase expression inhibitor project, luminescence, kanamycin, BacTiterGlo, confirmation (AID 1900); assay type: functional, organism-based
Streptokinase A = target: T2, Streptokinase A (Streptococcus pyogenes serotype M1, UniProt P10520); assay: S. pyogenes streptokinase expression inhibitors, potency, dose response, plasminogen activation absorbance, OD405 (AID 1914); assay type: functional, Streptococcus pyogenes M1 GAS;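 further: secreted streptokinase activity via plasminogen activation per viability signal from cell pellet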
T2 sequence (P10520 whole entry): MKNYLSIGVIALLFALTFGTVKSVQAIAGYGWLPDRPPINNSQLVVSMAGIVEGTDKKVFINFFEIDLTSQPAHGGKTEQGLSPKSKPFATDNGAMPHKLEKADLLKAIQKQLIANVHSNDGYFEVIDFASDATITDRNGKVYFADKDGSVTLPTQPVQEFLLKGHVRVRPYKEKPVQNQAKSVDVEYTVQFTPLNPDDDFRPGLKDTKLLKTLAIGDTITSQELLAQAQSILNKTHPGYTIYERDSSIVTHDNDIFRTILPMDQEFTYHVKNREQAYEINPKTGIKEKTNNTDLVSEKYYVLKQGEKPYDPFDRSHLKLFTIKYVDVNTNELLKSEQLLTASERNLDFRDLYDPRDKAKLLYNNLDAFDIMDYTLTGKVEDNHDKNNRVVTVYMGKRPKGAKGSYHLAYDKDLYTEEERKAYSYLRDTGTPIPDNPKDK

Streptococcus = assay: Group A Streptococcus viability loss, dose response, counter-screen for streptokinase expression inhibitor project, luminescence, BacTiterGlo (AID 1915); assay type: functional, organism-based;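 further: potency for reduction of bacterial viability or growth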
INS1 = assay: beta cell apoptosis inhibitors, cytokine rescue, dose response, luminescence, retest (AID 449756); assay type: functional, cell-based; conditions: Rattus norvegicus;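 further: cell death triggered by IL-1 beta plus TNF-alpha plus IFN-gamma mixture; protective hits raise ATP signal compared with cytokine alone wells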
[6] = growth suppression of beta-catenin-knockout colon cells, dose response, cell-based, HCT116, human colon tumor (AID 1045); assay type: functional;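 further: HCT116 colon tumor cells with beta catenin knocked out; cells exposed to compound for 60 hours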
[7] = growth suppression of PTEN-null colon cells, dose response, cell-based, HCT116 PTEN knockout (AID 1047); assay type: functional;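 further: HCT116 colon tumor cells with PTEN knocked out; cells exposed to compound for 60 hours before readout; potency for loss of cell viability measured by luminescence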
Cytochrome P450 2C19 = Cytochrome P450 2C19 (Homo sapiens, UniProt P33261); assay: Cytochrome panel assay with activity outcomes. Panel member name: p450-cyp2c19 Compounds with AC50 equal or less than 10 uM are considered active; assay type: functional; conditions: read-out: AC50
Cytochrome P450 2C19, sequence (P33261 whole entry): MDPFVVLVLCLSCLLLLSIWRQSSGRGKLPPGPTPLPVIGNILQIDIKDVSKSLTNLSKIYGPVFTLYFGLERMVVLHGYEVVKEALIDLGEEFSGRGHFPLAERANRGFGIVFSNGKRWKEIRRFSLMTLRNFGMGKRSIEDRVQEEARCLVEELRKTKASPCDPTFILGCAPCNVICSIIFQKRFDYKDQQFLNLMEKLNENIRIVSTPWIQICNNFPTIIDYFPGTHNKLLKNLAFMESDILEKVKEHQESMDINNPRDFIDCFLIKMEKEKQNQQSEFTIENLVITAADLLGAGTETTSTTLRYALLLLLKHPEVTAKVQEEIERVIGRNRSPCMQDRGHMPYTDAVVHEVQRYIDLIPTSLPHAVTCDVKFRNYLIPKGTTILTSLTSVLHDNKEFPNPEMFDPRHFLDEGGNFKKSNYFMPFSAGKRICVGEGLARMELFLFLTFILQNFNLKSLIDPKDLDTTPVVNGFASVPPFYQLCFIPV

Cytochrome P450 1A2 = target: T3, Cytochrome P450 1A2 (Homo sapiens, UniProt P05177);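 further: PubChem cytochrome P450 panel assay, CYP1A2 panel member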
T3 sequence (P05177 whole entry): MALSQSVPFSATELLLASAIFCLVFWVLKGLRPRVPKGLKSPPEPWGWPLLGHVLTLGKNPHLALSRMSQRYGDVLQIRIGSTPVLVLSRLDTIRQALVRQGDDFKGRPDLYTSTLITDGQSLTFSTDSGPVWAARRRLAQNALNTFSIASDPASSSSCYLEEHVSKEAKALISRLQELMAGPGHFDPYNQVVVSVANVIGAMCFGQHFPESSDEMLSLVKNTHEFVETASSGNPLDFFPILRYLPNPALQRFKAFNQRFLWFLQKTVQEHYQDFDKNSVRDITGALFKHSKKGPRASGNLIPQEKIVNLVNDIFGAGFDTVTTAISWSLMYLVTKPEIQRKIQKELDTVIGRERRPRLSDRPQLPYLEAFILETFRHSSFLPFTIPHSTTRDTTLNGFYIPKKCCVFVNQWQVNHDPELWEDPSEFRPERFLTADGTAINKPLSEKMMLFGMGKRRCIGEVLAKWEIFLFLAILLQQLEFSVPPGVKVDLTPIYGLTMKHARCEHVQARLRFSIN

Cytochrome P450 2D6 = Cytochrome P450 2D6 (Homo sapiens, UniProt P10635);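 further: CYP2D6 member of a cytochrome P450 panel assay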
Cytochrome P450 2D6, sequence (P10635 whole entry): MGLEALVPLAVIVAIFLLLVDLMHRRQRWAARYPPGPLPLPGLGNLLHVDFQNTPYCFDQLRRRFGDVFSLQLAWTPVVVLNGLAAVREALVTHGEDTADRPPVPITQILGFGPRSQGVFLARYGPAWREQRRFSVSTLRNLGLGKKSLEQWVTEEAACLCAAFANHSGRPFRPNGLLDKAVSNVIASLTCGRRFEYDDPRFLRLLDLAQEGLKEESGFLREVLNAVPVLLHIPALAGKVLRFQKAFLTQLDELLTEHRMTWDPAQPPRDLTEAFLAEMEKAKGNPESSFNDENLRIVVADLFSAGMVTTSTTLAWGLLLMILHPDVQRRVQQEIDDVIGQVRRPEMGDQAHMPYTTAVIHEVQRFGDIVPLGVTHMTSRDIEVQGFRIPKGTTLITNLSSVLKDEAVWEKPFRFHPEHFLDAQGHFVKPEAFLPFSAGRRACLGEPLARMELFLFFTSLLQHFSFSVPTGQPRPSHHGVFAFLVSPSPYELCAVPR

Compound: CC1CCN(CCNC(=O)C2CCCN(c3ncnc4c3nc3n4CCCCC3)C2)CC1 (stereo unspecified)
- IC50 [1]: 13.2 µM (active)

Compound: CC(C)N1CCN(Cc2ccc(OC3CCCC3)cc2)CC1CCO (stereo unspecified)
- AC50 [2]: 3.58 µM (active)

Compound: O=c1c2sc3nc(N4CCOCC4)c4c(c3c2ncn1-c1ccccc1)CCCC4
- EC50 [3]: > 112 µM (not active)
- EC50 [4]: > 112 µM (not active)

Compound: Cc1cccc(NC(=O)c2[nH]cnc2C(=O)NC2CCN(C(=O)OC(C)(C)C)CC2)c1
- AC50 [2]: 5.39 µM (active)

Compound: O=C(NCc1nnc(SCC(=O)N2CCOCC2)o1)c1c(F)cccc1F
- EC50 [5]: > 150 µM (not active)
- EC50 (Streptokinase A): > 150 µM (not active)
- EC50 (Streptococcus): > 150 µM (not active)

Compound: Cc1nc2sccn2c(=O)c1S(=O)(=O)NCC(C)c1ccccc1 (stereo unspecified)
- EC50 [3]: > 112 µM (not active)
- EC50 [4]: > 112 µM (not active)

Compound: Cc1ccc(C)n1-c1ccc(C(=O)Nc2ccccc2)cc1
- AC50 (INS1): > 260 µM (inactive)

Compound: O=C(CSc1ccccc1)Nc1nc2ccccc2[nH]1
- EC50 [3]: > 112 µM (not active)
- EC50 [4]: > 112 µM (not active)

Compound: CCN(CC(=O)NC1CCS(=O)(=O)C1)S(=O)(=O)c1ccccc1 (stereo unspecified)
- EC50 [3]: > 112 µM (not active)
- EC50 [4]: > 112 µM (not active)

Compound: Nc1c(C(=O)OCc2ccccc2)c2nc3ccccc3nc2n1Cc1cccs1
- EC50 [5]: 10.9 µM (active)
- EC50 (Streptokinase A): 18.5 µM (active)
- EC50 (Streptococcus): 11.8 µM (active)

Compound: Cn1c2ccccc2c(=O)c2c(=O)n(C3CCCCC3)c(-c3cccs3)nc21
- EC50 [6]: 8.9 µM (active)
- EC50 [5]: 10.6 µM (active)
- EC50 [7]: 7.92 µM (active)
- EC50 (Streptokinase A): > 150 µM (not active)
- EC50 (Streptococcus): 39.2 µM (active)

Compound: COc1ccc(NC(=S)N2CCc3ccccc32)cc1OC
- EC50 [3]: > 112 µM (not active)
- EC50 [4]: > 112 µM (not active)

Compound: CCOC(=O)Nc1ccc(Cc2ccncc2)cc1
- AC50 [2]: 25.3 µM (active)

Compound: COc1ccc(NC(=O)c2ccc(COc3ccccc3Br)o2)c(OC)c1
- AC50 [2]: 2.2 µM (active)

Compound: Cc1ccc(NC(=O)C(C)Sc2nnc(C)n2C2CC2)cc1S(=O)(=O)N1CCOCC1 (stereo unspecified)
- AC50 (INS1): > 260 µM (inconclusive)

Compound: CN(C)C=O.O=C(c1cc(-c2ccccc2Cl)nc2ccccc12)N1CCN(c2ccccn2)CC1
- AC50 (INS1): 3.9 µM (active)

Compound: CCN(CC)c1nc(Nc2ccc([N+](=O)[O-])cc2)nc(N(CC)CC)n1
- EC50 [5]: 6.64 µM (active)
- EC50 (Streptokinase A): > 150 µM (not active)
- EC50 (Streptococcus): 15.7 µM (active)

Compound: COc1ccc(C(CNC(=O)c2cc(S(=O)(=O)NCc3ccccc3)ccc2C)N2CCOCC2)cc1 (stereo unspecified)
- IC50 [1]: 11 µM (active)

Compound: COc1ccc(S(=O)(=O)N/N=C(/C)c2cccc(NC(=O)c3ccccc3Cl)c2)cc1
- AC50 (Cytochrome P450 2C19): 0.398 µM (inconclusive)
- AC50 (Cytochrome P450 1A2): 14.1 µM (inconclusive)
- AC50 (Cytochrome P450 2D6): 28.2 µM (inconclusive)
